Experiment: xn = mol fraction of the nth substance listed
Conditions: 101 kPa, Liquid, Vibrating tube method

C[N+](C)(C)CCO.[Cl-] [choline chloride] + OCCO
mass density [kg/m3]
Conditions | x1 = 0.28 | x1 = 0.33 | x1 = 0.36
298.15 K | 1117 | – | 1118
303.15 K | 1114.1 | 1114.6 | 1115.6
308.15 K | 1111.1 | – | 1112.2
313.15 K | 1108.2 | 1108.8 | 1109.7
318.15 K | 1105.2 | – | 1106.4
323.15 K | 1102.3 | 1103.6 | 1103.7
328.15 K | 1099.3 | – | 1100.6
333.15 K | 1096.2 | 1097.4 | 1096.8
338.15 K | 1093.4 | – | 1094.8
343.15 K | 1090.4 | 1091.6 | 1091
348.15 K | 1087.5 | – | 1089
353.15 K | 1084.7 | 1085.4 | 1087
358.15 K | 1081.6 | – | 1083.2
363.15 K | 1078.8 | 1079.1 | 1082
368.15 K | 1075.7 | – | 1077.4

C[N+](C)(C)CCO.[Cl-] [choline chloride] + OCC(O)CO
mass density [kg/m3]
Conditions | x1 = 0.25 | x1 = 0.33 | x1 = 0.5
298.15 K | 1203 | 1192 | –
303.15 K | 1200.2 | 1189.5 | 1153.5
308.15 K | 1197.6 | 1186.7 | –
313.15 K | 1195.1 | 1183.8 | 1148.3
318.15 K | 1192.2 | 1181.4 | –
323.15 K | 1189.1 | 1177.6 | 1143
328.15 K | 1186.8 | 1176.1 | –
333.15 K | 1184.4 | 1174.1 | 1137.9
338.15 K | 1181.4 | 1170.8 | –
343.15 K | 1178.1 | 1167.4 | 1132.6
348.15 K | 1176 | 1165.5 | –
353.15 K | 1173.2 | 1163.5 | 1126.6
358.15 K | 1170.6 | 1160.2 | –
363.15 K | 1167.8 | 1157.1 | 1122
368.15 K | 1165.2 | 1154.9 | –

C[P+](c1ccccc1)(c1ccccc1)c1ccccc1.[Br-] [methyltriphenylphosphonium bromide] + OCC(O)CO
mass density [kg/m3]
Conditions | x1 = 0.2 | x1 = 0.25 | x1 = 0.33
298.15 K | 1288.9 | 1297.6 | –
303.15 K | 1285.5 | 1294.5 | 1303
308.15 K | 1281.7 | 1290.6 | –
313.15 K | 1278 | 1287 | 1295.2
318.15 K | 1274.5 | 1283.6 | –
323.15 K | 1271 | 1280.9 | 1288.6
328.15 K | 1267.3 | 1276.6 | –
333.15 K | 1263.4 | 1273.6 | 1281.7
338.15 K | 1260.1 | 1269.6 | –
343.15 K | 1256.8 | 1266 | 1274.9
348.15 K | 1252.9 | 1262.6 | –
353.15 K | 1249.5 | 1259.3 | 1268.2
358.15 K | 1245.7 | 1255.6 | –
363.15 K | 1242.3 | 1252.4 | 1261.5
368.15 K | 1238.5 | 1248.6 | –

CCN(CC)CCO.Cl [2-(diethylamino)ethanol hydrochloride] + OCCO
mass density [kg/m3]
Conditions | x1 = 0.2 | x1 = 0.25 | x1 = 0.33
298.15 K | 1103.7 | – | 1099.5
303.15 K | 1100.4 | 1098.6 | 1096.5
308.15 K | 1097.3 | – | 1093.3
313.15 K | 1094.2 | 1092.6 | 1090.3
318.15 K | 1091 | – | 1087.1
323.15 K | 1087.7 | 1086.2 | 1084
328.15 K | 1084.6 | – | 1080.9
333.15 K | 1081.5 | 1079.7 | 1077.8
338.15 K | 1078.2 | – | 1074.8
343.15 K | 1075 | 1074 | 1071.7
348.15 K | 1071.8 | – | 1068.6
353.15 K | 1068.3 | 1067.5 | 1065.5
358.15 K | 1065.4 | – | 1062.4
363.15 K | 1062.2 | 1060 | 1059
368.15 K | 1059 | – | 1056.2

C[P+](c1ccccc1)(c1ccccc1)c1ccccc1.[Br-] [methyltriphenylphosphonium bromide] + OCCO
mass density [kg/m3]
Conditions | 303.15 K | 313.15 K | 323.15 K | 333.15 K | 343.15 K | 353.15 K | 363.15 K
x1 = 0.16 | 1216.3 | 1208.6 | 1202 | 1194.7 | 1187 | 1179.2 | 1172.3
x1 = 0.2 | 1229 | 1222 | 1215.1 | 1207.9 | 1200.6 | 1193.6 | 1186.4
x1 = 0.25 | 1242.4 | 1239.8 | 1232.4 | 1226 | 1218.8 | 1211.9 | 1204.5

CCN(CC)CCO.Cl [2-(diethylamino)ethanol hydrochloride] + OCC(O)CO
mass density [kg/m3]
Conditions | x1 = 0.2 | x1 = 0.25 | x1 = 0.33
298.15 K | 1220.1 | 1205.1 | –
303.15 K | 1217.3 | 1202 | 1170
308.15 K | 1214.1 | 1199 | –
313.15 K | 1211.4 | 1196.1 | 1163.8
318.15 K | 1208.1 | 1192.9 | –
323.15 K | 1204.8 | 1188.4 | 1158.5
328.15 K | 1202.1 | 1186.8 | –
333.15 K | 1198.9 | 1184 | 1153.1
338.15 K | 1196.1 | 1180.7 | –
343.15 K | 1193.6 | 1177.7 | 1145.8
348.15 K | 1190.1 | 1174.6 | –
353.15 K | 1187.3 | 1171.9 | 1140.3
358.15 K | 1184.1 | 1168.5 | –
363.15 K | 1180.7 | 1166.1 | 1134.4
368.15 K | 1178.1 | 1162.4 | –

Reference: the NIST ThermoML archive (doi:10.1016/j.tca.2011.10.010)
